Source: patent US9738634B2, “Heterocyclic amide compound and herbicide” (SYNGENTA PARTICIPATIONS AG, priority 2013, dated 2017)

Assays:
Assay type in all cases: in vivo
[1] = tested on: wheat; assay: Test Example 4: foliar treatment, effect on crop; e: wheat; details: treatment dosage 315 g/ha
Method in brief: (§1)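 Seeds are spot-sown into sterilized diluvial soil and covered with about 1.5 cm of soil. After 14 days' greenhouse growth at 25 to 30° C, plants are sprayed on stems and leaves with diluted emulsion at the stated g/ha rate, then scored at 3 weeks.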

[2] = tested on: catchweed; assay: Test Example 3: weedkilling efficacy through soil treatment; O: catchweed; details: treatment dosage 315 g/ha
Method in brief: (§2)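 Crop and weed responses were judged three weeks after a uniform surface spray of the water-diluted emulsion at the given g/ha rate. Seeds sat beneath about 1.5 cm of sterilized diluvial soil, and boxes stood in a greenhouse at 25 to 30° C.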

[3] = tested on: soybean; assay: Test Example 3: soil treatment, effect on crop; d: soybean; details: treatment dosage 315 g/ha
Method in brief: as §2

[4] = tested on: corn; assay: Test Example 3: soil treatment, effect on crop; c: corn; details: treatment dosage 315 g/ha
Method in brief: as §2

[5] = tested on: birds-eye speedwell; assay: Test Example 4: weedkilling efficacy by foliar treatment; p: birds-eye speedwell; details: treatment dosage 315 g/ha
Method in brief: as §1

[6] = tested on: birds-eye speedwell; assay: Test Example 3: weedkilling efficacy through soil treatment; p: birds-eye speedwell; details: treatment dosage 315 g/ha
Method in brief: as §2

[7] = tested on: fig-leafed goosefoot; assay: Test Example 4: weedkilling efficacy by foliar treatment; M: fig-leafed goosefoot; details: treatment dosage 315 g/ha
Method in brief: as §1

[8] = tested on: crabgrass; assay: Test Example 3: weedkilling efficacy through soil treatment; D: crabgrass; details: treatment dosage 315 g/ha
Method in brief: as §2

[9] = tested on: directly sown rice; assay: Test Example 4: foliar treatment, effect on crop; b: directly sown rice; details: treatment dosage 315 g/ha
Method in brief: as §1

[10] = tested on: corn; assay: Test Example 4: foliar treatment, effect on crop; c: corn; details: treatment dosage 315 g/ha
Method in brief: as §1

[11] = tested on: redroot pigweed; assay: Test Example 3: weedkilling efficacy through soil treatment; L: redroot pigweed; details: treatment dosage 315 g/ha
Method in brief: as §2

[12] = tested on: Indian mallow; assay: Test Example 4: weedkilling efficacy by foliar treatment; K: Indian mallow; details: treatment dosage 315 g/ha
Method in brief: as §1

[13] = tested on: Indian mallow; assay: Test Example 3: weedkilling efficacy through soil treatment; K: Indian mallow; details: treatment dosage 315 g/ha
Method in brief: as §2

[14] = tested on: directly sown rice; assay: Test Example 3: soil treatment, effect on crop; b: directly sown rice; details: treatment dosage 315 g/ha
Method in brief: as §2

[15] = tested on: chickweed; assay: Test Example 4: weedkilling efficacy by foliar treatment; N: chickweed; details: treatment dosage 315 g/ha
Method in brief: as §1

[16] = tested on: Italian ryegrass; assay: Test Example 3: weedkilling efficacy through soil treatment; I: Italian ryegrass; details: treatment dosage 315 g/ha
Method in brief: as §2

[17] = tested on: fig-leafed goosefoot; assay: Test Example 3: weedkilling efficacy through soil treatment; M: fig-leafed goosefoot; details: treatment dosage 315 g/ha
Method in brief: as §2

[18] = tested on: soybean; assay: Test Example 4: foliar treatment, effect on crop; d: soybean; details: treatment dosage 315 g/ha
Method in brief: as §1

[19] = tested on: black-grass; assay: Test Example 3: weedkilling efficacy through soil treatment; H: black-grass; details: treatment dosage 315 g/ha
Method in brief: as §2

[20] = tested on: beet; assay: Test Example 4: foliar treatment, effect on crop; f: beet; details: treatment dosage 315 g/ha
Method in brief: as §1

[21] = tested on: wild oat; assay: Test Example 3: weedkilling efficacy through soil treatment; G: wild oat; details: treatment dosage 315 g/ha
Method in brief: as §2

[22] = tested on: black-grass; assay: Test Example 4: weedkilling efficacy by foliar treatment; H: black-grass; details: treatment dosage 315 g/ha
Method in brief: as §1

[23] = tested on: green foxtail; assay: Test Example 4: weedkilling efficacy by foliar treatment; E: green foxtail; details: treatment dosage 315 g/ha
Method in brief: as §1

[24] = tested on: wheat; assay: Test Example 3: soil treatment, effect on crop; e: wheat; details: treatment dosage 315 g/ha
Method in brief: as §2

[25] = tested on: wild oat; assay: Test Example 4: weedkilling efficacy by foliar treatment; G: wild oat; details: treatment dosage 315 g/ha
Method in brief: as §1

[26] = tested on: redroot pigweed; assay: Test Example 4: weedkilling efficacy by foliar treatment; L: redroot pigweed; details: treatment dosage 315 g/ha
Method in brief: as §1

[27] = tested on: Italian ryegrass; assay: Test Example 4: weedkilling efficacy by foliar treatment; I: Italian ryegrass; details: treatment dosage 315 g/ha
Method in brief: as §1

[28] = tested on: chickweed; assay: Test Example 3: weedkilling efficacy through soil treatment; N: chickweed; details: treatment dosage 315 g/ha
Method in brief: as §2

[29] = tested on: green foxtail; assay: Test Example 3: weedkilling efficacy through soil treatment; E: green foxtail; details: treatment dosage 315 g/ha
Method in brief: as §2

[30] = tested on: catchweed; assay: Test Example 4: weedkilling efficacy by foliar treatment; O: catchweed; details: treatment dosage 315 g/ha
Method in brief: as §1

[31] = tested on: beet; assay: Test Example 3: soil treatment, effect on crop; f: beet; details: treatment dosage 315 g/ha
Method in brief: as §2

[32] = tested on: crabgrass; assay: Test Example 4: weedkilling efficacy by foliar treatment; D: crabgrass; details: treatment dosage 315 g/ha
Method in brief: as §1

[33] = tested on: oval-leafed pondweed; assay: Test Example 1: weedkilling efficacy, preemergent weed treatment in the submerged state; C: oval-leafed pondweed; details: treatment dosage 252 g/ha
Method in brief: (§3)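 Submerged pre-emergence treatment, water-surface application of compound emulsion at g/ha dosages; 4 cm flooded alluvial soil, weeds sown and 2.5-leaf rice transplanted same day. Rated after 3 weeks, greenhouse.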

[34] = tested on: barnyard grass; assay: Test Example 2: weedkilling efficacy, growth period weed treatment in the submerged state; A: barnyard grass; details: treatment dosage 252 g/ha
Method in brief: (§4)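 Seedlings at 1-2 leaves in 4 cm-deep submerged alluvial soil received emulsion formulations on the water surface, dosed per hectare; effects were judged 3 weeks on.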

[35] = tested on: oval-leafed pondweed; assay: Test Example 2: weedkilling efficacy, growth period weed treatment in the submerged state; C: oval-leafed pondweed; details: treatment dosage 252 g/ha
Method in brief: as §4

[36] = tested on: barnyard grass; assay: Test Example 1: weedkilling efficacy, preemergent weed treatment in the submerged state; A: barnyard grass; details: treatment dosage 252 g/ha
Method in brief: as §3

[37] = tested on: bulrush; assay: Test Example 2: weedkilling efficacy, growth period weed treatment in the submerged state; B: bulrush; details: treatment dosage 252 g/ha
Method in brief: as §4

[38] = tested on: bulrush; assay: Test Example 1: weedkilling efficacy, preemergent weed treatment in the submerged state; B: bulrush; details: treatment dosage 252 g/ha
Method in brief: as §3

[39] = tested on: transplanted rice; assay: Test Example 1: preemergent weed treatment in the submerged state, effect on crop; a: transplanted rice; details: treatment dosage 252 g/ha
Method in brief: as §3

SMILES | e (wheat) effect on crop grade [1] | O (catchweed) weedkilling efficacy grade [2] | d (soybean) effect on crop grade [3] | c (corn) effect on crop grade [4] | P (birds-eye speedwell) weedkilling efficacy grade [5] | M (fig-leafed goosefoot) weedkilling efficacy grade [7] | D (crabgrass) weedkilling efficacy grade [8] | b (directly sown rice) effect on crop grade [9] | c (corn) effect on crop grade [10] | L (redroot pigweed) weedkilling efficacy grade [11] | K (Indian mallow) weedkilling efficacy grade [12] | K (Indian mallow) weedkilling efficacy grade [13] | b (directly sown rice) effect on crop grade [14] | N (chickweed) weedkilling efficacy grade [15] | I (Italian ryegrass) weedkilling efficacy grade [16] | M (fig-leafed goosefoot) weedkilling efficacy grade [17] | d (soybean) effect on crop grade [18] | H (black-grass) weedkilling efficacy grade [19] | f (beet) effect on crop grade [20] | G (wild oat) weedkilling efficacy grade [21] | further results
CC1=C(c2cccnc2F)C(=O)N(C(C)(C)C(=O)Nc2cc(C(F)(F)F)ccn2)CO1 [B-2-17, 2-[5-(2-fluoropyridin-3-yl)-6-methyl-4-oxo-2H-1,3-oxazin-3(4H)-yl]-2-methyl-N-[4-(trifluoromethyl)pyridin-2-yl] propionamide] | 0 (weed kill ratio 5% or less (practically no effect)) | 1 (weed kill ratio 5% or more, less than 20%) | 2 (weed kill ratio 20% or more, less than 40%) | 2 (weed kill ratio 20% or more, less than 40%) | 2 (weed kill ratio 20% or more, less than 40%) | 2 (weed kill ratio 20% or more, less than 40%) | 5 (weed kill ratio 90% or more, (practically complete withering)) | 5 (weed kill ratio 90% or more, (practically complete withering)) | 3 (weed kill ratio 40% or more, less than 70%) | 2 (weed kill ratio 20% or more, less than 40%) | 1 (weed kill ratio 5% or more, less than 20%) | 2 (weed kill ratio 20% or more, less than 40%) | 4 (weed kill ratio 70% or more, less than 90%) | 2 (weed kill ratio 20% or more, less than 40%) | 5 (weed kill ratio 90% or more, (practically complete withering)) | 3 (weed kill ratio 40% or more, less than 70%) | 0 (weed kill ratio 5% or less (practically no effect)) | 5 (weed kill ratio 90% or more, (practically complete withering)) | 2 (weed kill ratio 20% or more, less than 40%) | 5 (weed kill ratio 90% or more, (practically complete withering)) | P (birds-eye speedwell) weedkilling efficacy grade [6]: 5 (weed kill ratio 90% or more, (practically complete withering)); H (black-grass) weedkilling efficacy grade [22]: 4 (weed kill ratio 70% or more, less than 90%); E (green foxtail) weedkilling efficacy grade [23]: 5 (weed kill ratio 90% or more, (practically complete withering)); e (wheat) effect on crop grade [24]: 1 (weed kill ratio 5% or more, less than 20%); G (wild oat) weedkilling efficacy grade [25]: 4 (weed kill ratio 70% or more, less than 90%); L (redroot pigweed) weedkilling efficacy grade [26]: 3 (weed kill ratio 40% or more, less than 70%); I (Italian ryegrass) weedkilling efficacy grade [27]: 5 (weed kill ratio 90% or more, (practically complete withering)); N (chickweed) weedkilling efficacy grade [28]: 3 (weed kill ratio 40% or more, less than 70%); E (green foxtail) weedkilling efficacy grade [29]: 5 (weed kill ratio 90% or more, (practically complete withering)); O (catchweed) weedkilling efficacy grade [30]: 0 (weed kill ratio 5% or less (practically no effect)); f (beet) effect on crop grade [31]: 0 (weed kill ratio 5% or less (practically no effect)); D (crabgrass) weedkilling efficacy grade [32]: 5 (weed kill ratio 90% or more, (practically complete withering))
CC1=C(c2ccccc2)C(=O)N(C(C)(C)C(=O)Nc2cc(C(F)(F)F)cc(Cl)n2)CO1 [B-2-37] | 1 (weed kill ratio 5% or more, less than 20%) | 4 (weed kill ratio 70% or more, less than 90%) | 0 (weed kill ratio 5% or less (practically no effect)) | 1 (weed kill ratio 5% or more, less than 20%) | 4 (weed kill ratio 70% or more, less than 90%) | 3 (weed kill ratio 40% or more, less than 70%) | 5 (weed kill ratio 90% or more, (practically complete withering)) | 4 (weed kill ratio 70% or more, less than 90%) | 4 (weed kill ratio 70% or more, less than 90%) | 5 (weed kill ratio 90% or more, (practically complete withering)) | 4 (weed kill ratio 70% or more, less than 90%) | 4 (weed kill ratio 70% or more, less than 90%) | 3 (weed kill ratio 40% or more, less than 70%) | 4 (weed kill ratio 70% or more, less than 90%) | 5 (weed kill ratio 90% or more, (practically complete withering)) | 4 (weed kill ratio 70% or more, less than 90%) | 3 (weed kill ratio 40% or more, less than 70%) | 5 (weed kill ratio 90% or more, (practically complete withering)) | 4 (weed kill ratio 70% or more, less than 90%) | 5 (weed kill ratio 90% or more, (practically complete withering)) | C (oval-leafed pondweed) weedkilling efficacy grade [33]: 5 (weed kill ratio 90% or more, (practically complete withering)); A (barnyard grass) weedkilling efficacy grade [34]: 5 (weed kill ratio 90% or more, (practically complete withering)); C (oval-leafed pondweed) weedkilling efficacy grade [35]: 5 (weed kill ratio 90% or more, (practically complete withering)); H (black-grass) weedkilling efficacy grade [22]: 4 (weed kill ratio 70% or more, less than 90%); E (green foxtail) weedkilling efficacy grade [23]: 5 (weed kill ratio 90% or more, (practically complete withering)); e (wheat) effect on crop grade [24]: 0 (weed kill ratio 5% or less (practically no effect)); A (barnyard grass) weedkilling efficacy grade [36]: 5 (weed kill ratio 90% or more, (practically complete withering)); B (bulrush) weedkilling efficacy grade [37]: 5 (weed kill ratio 90% or more, (practically complete withering)); G (wild oat) weedkilling efficacy grade [25]: 3 (weed kill ratio 40% or more, less than 70%); L (redroot pigweed) weedkilling efficacy grade [26]: 4 (weed kill ratio 70% or more, less than 90%); I (Italian ryegrass) weedkilling efficacy grade [27]: 4 (weed kill ratio 70% or more, less than 90%); B (bulrush) weedkilling efficacy grade [38]: 5 (weed kill ratio 90% or more, (practically complete withering)); a (transplanted rice) effect on crop grade [39]: 2 (weed kill ratio 20% or more, less than 40%); N (chickweed) weedkilling efficacy grade [28]: 4 (weed kill ratio 70% or more, less than 90%); E (green foxtail) weedkilling efficacy grade [29]: 5 (weed kill ratio 90% or more, (practically complete withering)); O (catchweed) weedkilling efficacy grade [30]: 3 (weed kill ratio 40% or more, less than 70%); f (beet) effect on crop grade [31]: 4 (weed kill ratio 70% or more, less than 90%); D (crabgrass) weedkilling efficacy grade [32]: 5 (weed kill ratio 90% or more, (practically complete withering))
